The values below come from US20030215817A1, “Modulation of gene expression in formation of fatty atherosclerotic lesions” (priority 2003, published 2003).

Where a name gives a salt, the structure may show the parent alone.

The test system of series [1] is REC1_17 (TCGT 199) mRNA. Put plainly: quantified RT-PCR, Rec1_17. It counts as in vivo, rabbit. Particulars: for Relative Abundance Rec1_17, 20 pg F: hypercholesterolemic plus lercanidipine racemate, eight weeks, H2 (normocholesterolemic)=1.0. On the procedure:
(§1) Nineteen of the isolated DST clones were further validated using RT-PCR analyses; the data are presented in FIGS. 6-24 and in Tables 5-23, below. For each DST examined, the optimal annealing temperature and reagent conditions were determined for the corresponding set of primers (see Table 25) based on results from a preliminary experiment. In eight separate reactions, each set of primers was assayed to find the optimal conditions by adjusting the following four parameters: primer concentration, dNTP concentration, MgCl2 concentration, and number of Taq polymerase units. Once optimal conditions were determined, each DST was run in duplicate multiple simultaneous reactions which usually included at least four dilutions of template (cDNA library), plus control reactions lacking template, and six sequential data points for numbers of cycles.
(§2) Reactions were performed using “Hot Start” PCR with the Clontech TaqStart antibody system (Cat. #5400-1). Each reaction contained 1 ml of the cDNA library dilution as template, determined amounts of AmpliTaq DNA polymerase (cat. #N808-0156), MgCl2, dNTPs (GibcoBRL cat. #10297-018), primer, and Clontech TaqStart Antibody in a 20 ml final reaction volume using 10×Taq buffer II (without MgCl2). Typically, a master mix containing all components except the template was prepared and aliquoted. Various templates were then added to these master mix samples and 20 ml volumes were subsequently dispensed into individual reaction tubes. At various times during the PCR run, tubes were removed sequentially on a predetermined schedule in order to quantitate expression of the target DST over a “window” of cycle times. After amplification, the samples were quantified via fluorimetry.
(§3) PCR was performed at annealing temperatures that were five degrees above the average melting temperature of each primer pair. For primers greater than 10 bases (in a 0.05M salt solution), melting temperature was calculated using the following formula: Tm=59.9+41[% GC]−[675/Primer Length], where %GC is the decimal value. Following determination of the average melting temperature of the primer pair, the annealing temperature was determined by adding five degrees to the average melting temperature. PCR was performed using the following program: 1) 95 degrees Celsius, 3 minutes; 2) 95 degrees Celsius, 30 seconds; 3) TM+5 degrees Celsius, 30 seconds; 4) 72 degrees Celsius, for a time dependent on target length at 16 bp/second; 5) repeat steps 2-4 33 more cycles; 6) 72 degrees Celsius, 3 minutes; 7) 14 degrees Celsius, forever.
(§4) Following temperature cycling, 2 ml of the PCR reaction was added to 140 ml of a 1:280 dilution of PicoGreen (Molecular Probes cat. #P-11495 (10×100 ml)) in TE pH 7.5 in a 96-well Costar UV microtiter plate (Fisher cat. #07-200623). The samples were mixed gently for 1.5 minutes and allowed to equilibrate at room temperature in the dark for 15 minutes. The concentration of the PCR products was quantified by fluorimetry using a PerSeptive Biosystems CytoFluor series 4000 multi-well plate reader.
(§5) Background fluorescence was determined by using duplicate control samples that were cycled with all reaction components except the template. The mean value from these duplicate background control samples was subtracted from the corresponding experimental values prior to analyzing results. The sensitivity of the PicoGreen dsDNA assay is reported to be 250 pg/ml (50 pg dsDNA in a […] assay volume) using a fluorescence microplate reader such as was used in these measurements. […]

In series [2] the test system is REC1_19 (TGTT 393) mRNA. Put plainly: quantified RT-PCR, Rec1_19. In kind it is in vivo, rabbit. Particulars: for Relative Abundance Rec1_19, 100 pg F: hypercholesterolemic plus lercanidipine racemate, eight weeks, H2 (normocholesterolemic)=1.0. The procedure: as §1, §2, §3, §4, §5
The conditions of series [3]: in vivo studies (Soma 1998); cited from earlier work.
For series [4], the system named is REC1_2 (MspI AATC 108) mRNA. The experiment in a line: quantified RT-PCR, Rec1_2. It counts as in vivo, rabbit. The note with it: for Relative Abundance Rec1_2, 500 pg F: hypercholesterolemic plus lercanidipine racemate, eight weeks, H2 (normocholesterolemic)=1.0. On the procedure:
as §1, §2, §3, §4, §5

Series [5] concerns Rec1_7 (CACA 282) mRNA. Put plainly: quantified RT-PCR, Rec1_7. It counts as in vivo, rabbit. Particulars: for Relative Abundance Rec1_7, 100 pg F: hypercholesterolemic plus lercanidipine racemate, eight weeks, H2 (normocholesterolemic)=1.0. The procedure:
as §1, §2, §3, §4, §5

A short description of series [6]: preliminary kinetic studies: plasma levels after subcutaneous administration. In kind it is in vivo. Particulars: rabbit, sc, rabbits, after 7 days from the administration. On the procedure: The doses of lercanidipine used were determined from preliminary kinetic studies.
A short description of series [7]: arterial blood pressure in treated rabbits. In kind it is in vivo. Particulars: doses utilized (3 mg/kg/week subcutaneously). On the procedure:
The daily doses of cholesterol (1.6 g) were given in the morning (at 08.00 hours) each mixed in 20 g of food pellets. Normal chow, up to 150 g, was added after all the cholesterol-rich diet was eaten (usually within 30 minutes). The hydrochloride salt of lercanidipine or (R)-lercanidipine (Recordati, Milano, Italy) was administered subcutaneously as a solution in 50% propylene glycol. […] Animals had free access to water and were kept in a 12 hour light-dark cycle. Blood was drawn from the central ear artery at day 29 after treatment, started in order to monitor the lercanidipine plasma level at 24 hour post-dose.

Series [8] concerns REC1_13 (MspI GCCC 216) mRNA. The experiment in a line: quantified RT-PCR, Rec1_13. In kind it is in vivo, rabbit. Particulars: for Relative Abundance Rec1_13, 100 pg F: hypercholesterolemic plus lercanidipine racemate, eight weeks, H2 (normocholesterolemic)=1.0. The procedure:
as §1, §2, §3, §4, §5

Series [9] relates to calcium channel. Particulars: (R)-enantiomer compared with the other enantiomer of lercanidipine; cited from earlier work.
Setting [10] is: hypercholesterolemic animals receiving lercanidipine.
[11] abbreviates: hypercholesterolemic animals receiving lercanidipine racemate.

In the case of `COC(=O)C1=C(C)NC(C)=C(C(=O)OC(C)(C)CN(C)CCC(c2ccccc2)c2ccccc2)C1c1cccc([N+](=O)[O-])c1` (racemic) [lercanidipine, lercanidipine hydrochloride], the “Relative Abundance Rec1_17, 20 pg F” value is recorded as 0.01 in series [1] (cycle 24); 0.00 in series [1] (cycle 26); 0.09 in series [1] (cycle 28); 0.08 in [1] (cycle 30); 0.21 in series [1] (cycle 32); 0.43 in [1] (cycle 34). For the same compound, the “expression of Rec1_17 at 8 weeks (RT-PCR study), in words” value in [1] (setting [10]) was “decreased”. The “Relative Abundance Rec1_19, 100 pg F” value in series [2] (cycle 24) was 0.0; in series [2] (cycle 26), 0.0; in [2] (cycle 28), 0.0; in series [2] (cycle 30) it was 0.1; in [2] (cycle 32) it was 0.3; in [2] (cycle 34) it was 0.5. Further, in series [2] (setting [10]), the “expression of Rec1_19 at 8 weeks (RT-PCR study), in words” value is given as “decreased”. Also, the “aortic fatty lesion deposition” value in [3] is reported as “inhibit”. Besides, the “Relative Abundance Rec1_2, 500 pg F” value in series [4] (cycle 22) is 2.7; in series [4] (cycle 24) it was 0.6; in [4] (cycle 26), 5.0; in series [4] (cycle 28), 6.6; in series [4] (cycle 30), 2.5; in series [4] (cycle 32), 1.6. The “expression of Rec1_2 at 8 weeks (RT-PCR study), in words” value in series [4] (setting [11]) is recorded as “elevated”. Besides, the “Relative Abundance Rec1_7, 100 pg F” value in series [5] (cycle 24) stood at 0.00; in [5] (cycle 26), 0.00; in series [5] (cycle 28), 0.06; in [5] (cycle 30), 0.10; in series [5] (cycle 32), 0.3; in series [5] (cycle 34) it was 0.5. Further, the “expression of Rec1_7 at 8 weeks (RT-PCR study), in words” value in series [5] (setting [11]) is recorded as “down-regulated”. Besides, the concentration at 7 days in series [6] (subcutaneous administration of 1 mg/kg) was determined as 500 ng/g; in [6] (subcutaneous administration of 3 mg/kg), 3200 ng/g. The “effect on arterial blood pressure” value in [7] is “did not affect”. Also, the “Relative Abundance Rec1_13, 100 pg F” value was 1.4 in series [8] (cycle 20); 33.7 in series [8] (cycle 22); 3.0 in [8] (cycle 24); 1.9 in series [8] (cycle 26); 1.2 in series [8] (cycle 28); 1.3 in [8] (cycle 30). In addition, the “expression of Rec1_13 at 8 weeks (RT-PCR study), in words” value in series [8] (setting [11]) is recorded as “elevated”.

Consider `COC(=O)C1=C(C)NC(C)=C(C(=O)OC(C)(C)CN(C)CCC(c2ccccc2)c2ccccc2)[C@@H]1c1cccc([N+](=O)[O-])c1.Cl` (single isomer, unassigned) [(R)-lercanidipine], for which the “effectiveness as a ligand to the calcium channel, less effective” value in series [9] is given as 2-3 orders of magnitude.
